The values below come from patent US8449923B2, “Methods for inhibiting sensory nerves by topically administering strontium-containing compositions to keratinized skin” (Cosmederm Bioscience, Inc., priority 1994, dated 2013).

In experiment [1] the test system is skin irritation induced by lactic acid (face). Kind of experiment: Lactic acid irritation trial, time zero test (anti-irritant applied simultaneously with irritant). Format: in vivo, human. The following applies: for Percent Inhibition (average inhibition of cumulative irritation) / Percent Inhibition: time zero tests; for Percent Inhibition (average inhibition of cumulative irritation): cation salt 250 mM, lactic acid irritant; for Percent Inhibition: representative subject panels, vehicle 10% EtOH. On the procedure:
(§1) The majority of the trials were conducted using lactic acid as the skin irritant, and proceeded generally as follows.
(§2) Tests were conducted in multiple panels of from 7 to 12 subjects each. Subjects were instructed not to wear any makeup or facial lotions to the clinic the day of testing. The subjects were instructed to wash their face with Ivory bar soap in the clinic prior to application of test solutions.
(§3) Lactic acid skin-irritant compositions were formulated in an appropriate vehicle prior to application to the skin of the subjects.
(§4) Test anti-irritant formulations containing measured amounts of strontium salts (concentration 250 mM) were applied either (a) 15 minutes prior to application to the skin of the skin-irritant (“pretreatment test”) or (B) simultaneously with the application of the skin-irritant (“time zero test”). […] Controls were performed by applying corresponding formulation(s) (pretreatment and/or skin-irritant composition) with an equimolar amount of sodium chloride to a contralateral portion of the subject's skin. Typically, the test materials were applied to the face of the subject.
(§5) All test solutions (including controls) were applied in a double blind, randomized fashion using the prepared solutions as previously placed in coded vial designated for use on either the right or left side of the face (or other test area). Solutions were typically applied using a cotton swab (six strokes) or sponge applicator to the face and cheek area extending from the midline of the nose over to the center of the cheek and from the cheek bone down to the jaw line. Application was made first to the right side and then to the left.
(§6) Sensory assessment scores were recorded for each treated side of the subject's skin every minute for 15 minutes or until three consecutive scores of “zero” irritation were obtained. The following scaled scores were used for sensory assessment:
(§7) Symptom scores were cumulated, separately for the cation-treated and control-treated areas, for each individual and also for the panel as a whole. Individuals not reporting a cumulative score of at least “7” on at least one treatment area were excluded (in a blinded fashion) from further analysis in order to ascertain anti-irritant efficacy with respect to the more severely-susceptible test subjects. From a practical standpoint, scores of “0” and “1” on the above scale would be considered highly desirable for a commercial product because such a response would likely not result in a consumer ceasing to use a product. Some consumers, in fact, might view the “barely perceptible” sensations represented by a score of 1 to be an indication that a facial treatment skin care product (especially an exfoliant) was working as advertised. By contrast, irritation scores of “2”, “3” and “4” would likely often result in a consumer never purchasing the product again.

The test system is the same in experiment [2]. In words: Lactic acid irritation trial, pretreatment test (anti-irritant applied 15 minutes before irritant). Format: in vivo, human. The settings on record: pretreatment tests; for Percent Inhibition (average inhibition of cumulative irritation): cation salt 250 mM, lactic acid irritant; for Percent Inhibition: representative subject panels, 250 mM, vehicle VIS DIFFERENCE
On the procedure:
as §1, §2, §3, §4, §5, §6, §7

Experiment [3] relates to irritation induced by capsaicin. The settings on record: 250 mM; capsaicin challenge; pretreatment.
Excerpt: The test compounds of the invention were formulated in Elizabeth Arden “Visible Difference Refining Toner”, with the Toner mixed with equimolar sodium chloride serving as the control. The test solutions (and control) were provided in coded vials for application to either the right or left arms. A template (1.5 in.×4.0 in.) was placed on each forearm to mark the challenge area. The pre-treatment solutions containing the anti-irritant cation of the invention were applied to extend 1 inch beyond the marked challenge area in all directions and were allowed to dry for 5 minutes. 0.5 ml of 0.15% capsaicin cream or a swab moistened with capsaicin solution was thereafter applied to each arm by the clinical technician, who rubbed in the cream using gloved fingers. Application and scoring of test and control formulations was performed sequentially for each arm. Scoring was recorded every minute starting at 5 minutes post-application for 10 minutes and then every 5 minutes for 15 minutes (30 minutes total) for the cream, and every minute starting immediately for 15 minutes for the solution. Assessment was made using the irritation scale described above for the lactic acid test, and a simultaneous visual assessment of erythema was made by the monitoring technician.
Experiment [4] has as its system skin irritation induced by lactic acid. As to the method: Additional studies of anti-irritant activity using varying concentrations of strontium cations were conducted in order to assess the dose-response behavior of the present formulations. The lactic acid irritation protocol described above was used, in which the anti-irritant cation component was strontium nitrate (31-500 mM).

Read-outs that look alike come from different tables or passages of the source.

Consider `[Cl-].[Cl-].[Sr+2]` [Strontium chloride], for which the “Percent Inhibition (average inhibition of cumulative irritation)” value in experiment [1] is recorded as 60%; in experiment [2], 25%. Further, the “Percent Inhibition” value is 58% in experiment [1] (250 mM) and 20% in experiment [2].
As to `O=[N+]([O-])[O-].O=[N+]([O-])[O-].[Sr+2]` [Strontium nitrate], the “overall efficacy in one representative panel (FIGS. 5-8)” value in experiment [3] is listed as “the overall efficacy of the subject formulation is evident”. In addition, the “Percent Inhibition (cumulative irritation)” value in experiment [4] (concentration 31 mM) worked out at 77%; in experiment [4] (concentration 62 mM), 32%; in experiment [4] (concentration 125 mM) it was 42%; in experiment [4] (concentration 250 mM), 72%; in experiment [4] (concentration 500 mM) it was 82%. The “overall efficacy in one panel (FIGS. 1-4)” value in experiment [1] (250 mM, time zero test, one panel) was “the overall efficacy of the subject formulation is clear”. The results for the “Percent Inhibition (average inhibition of cumulative irritation)” value in experiment [1] and in experiment [2] were 65% and 50%, respectively. The results for the “Percent Inhibition” value in experiment [1] (250 mM) and in experiment [2] were 64% and 56%, respectively.
On to `CC(=O)[O-].CC(=O)[O-].[Sr+2]` [Strontium acetate], for which, in experiment [2], the “Percent Inhibition (average inhibition of cumulative irritation)” value was found to be 46% and the “Percent Inhibition” value is given as 46%.
